Measurements reported in patent publication US20240300972A1, “THIOPHENE-BASED LIPIDS” (Oregon State University, priority 2021, published 2024).

Legend:
[1] = tested on: HeLa (human cervical epithelial cells); assay: In vitro transfection efficiency of FLuc mRNA LNPs, ONE-Glo Luciferase Assay; type: cell-based; settings: for dose response of transfection efficiency: 50 vs 200 ng/well; for transfection profile and cytotoxicity: compared to negative control (PBS) and positive control (MC3 LNPs at the same dose)
Method: (§1) Mammalian cell lines used to measure cytotoxicity and transfection efficiency include HeLa (human cervical epithelial cells), HEK293T/17 (human embryonic kidney cells), HepG2 (human liver epithelial-like cells), and Jurkat E6-1 (human T-lymphocytes). The cells were seeded at 4000 cells/well in a 96-well plate and incubated for 24 hours. The next day, the LNPs of interest were diluted with 1×PBS to 50 ng/ul and administered at predetermined doses to the cells. The cell viability and transfection efficiency were evaluated on the following day (after 24-hour incubation of cells with LNPs). The cell viability was measured with Promega CellTiter-Fluor Cell Viability Assay, and the transfection efficiency was measured with Promega ONE-Glo Luciferase Assay System using Tecan Infinite M200 PRO multimode plate reader instrument. The dose range varied from 50 to 200 ng of nucleic acid per well.

BALB/c mice = assay: In vivo bioluminescence imaging after administration of Fluc mRNA nanoparticle formulations; design: species or system mouse; settings: for transfection after intramuscular administration: flanks of mice; for luminescent signals detected by in vivo imaging / pattern / origin of luminescence (transfected tissues) / degree of transfection (light flux) in the tested series: intravenous administration; for luminescent signals detected by in vivo imaging / degree of transfection (light flux) in the tested series: mice; for pattern / origin of luminescence (transfected tissues): in vivo and ex vivo organs; for light flux compared to the negative control: normal (50:10:38.5:1.5) and highly PEGylated (50:7:38.5:4.5) formulations
Method: A nanoparticle formulation including firefly luciferase (Fluc) mRNA was administered to BALB/c mice by intravenous, intramuscular, intravitreal, or subretinal injection. The intravenous injection was performed by tail-vein or retro-orbital injection. Mice that received a dose of nanoparticle formulation were housed until bioluminescence imaging. Bioluminescence imaging is a method to quantify luminescent signals from the subject. Prior to bioluminescence imaging, the mice were sedated with inhalation of isoflurane. The sedated mice received a dose of D-luciferin salt, which is a substrate of firefly luciferase, by intraperitoneal injection at 150 mg/kg 10 minutes prior to bioluminescence imaging. Bioluminescence imaging was performed on the mice with various exposure times ranging from 1 to 300 seconds using IVIS Lumina XRMS from PerkinElmer. To evaluate the protein expression at an organ level, internal organs of a mouse, such as the liver, lungs, kidneys, spleen, lymph nodes, and heart, and external tissues of mouse, such as muscle tissues close to a site of injection, were excised.

[2] = tested on: HEK293T/17 (human embryonic kidney cells); assay: In vitro transfection efficiency of FLuc mRNA LNPs, ONE-Glo Luciferase Assay; type: cell-based; settings: HEK293T/17, 200 ng (identical dose)
Method: as §1

[3] = tested on: HepG2 (human liver epithelial-like cells); assay: as above; type: cell-based; settings: HepG2, 200 ng (identical dose)
Method: as §1

Compound | dose response of transfection efficiency ([1]; HeLa) | transfection after intramuscular administration (BALB/c mice) | luminescent signals detected by in vivo imaging (BALB/c mice) | pattern / origin of luminescence (transfected tissues) (BALB/c mice) | light flux compared to the negative control (BALB/c mice; subretinal administration) | decline compared to the positive control [2] | improvement compared to the positive control ([1]; HeLa cell line, 200 ng treatment) | transfection profile and cytotoxicity ([1]; HeLa) | decline compared to the positive control [3] | luciferase signal (BALB/c mice; subretinal administration, “normal” formulation (1.5% PEG)) | degree of transfection (light flux) in the tested series (BALB/c mice) | decrease in transfection efficiency vs positive control ([1]; HeLa, MC3 LNPs at the same dose)
6-(3-(dimethylamino)propanoyl)-2-((9Z,12Z)-octadeca-9,12-dienamido)-N-((9Z,12Z)-octadeca-9,12-dienoyl)-N-octadecyl-4,5,6,7-tetrahydrothieno[2,3-c]pyridine-3- [26a] | greater at 200 ng/well than at 50 ng/well | successful and comparable transfection of local tissues | successful transfection | local transfection | greater significant light flux |  |  |  |  |  |  | 
CCCCC/C=C\C/C=C\CCCCCCCC(=O)N(C(=O)CCCCCCC/C=C\C/C=C\CCCCC)c1sc2c(c1C(=O)OCC)CCN(C(=O)CCCN(C)C)C2 [19da, ethyl 6-(4-(dimethylamino)butanoyl)-2-((9Z,12Z)—N-((9Z,12Z)-octadeca-9,12-dienoyl)octadeca-9,12-dienamido)-4,5,6,7-tetrahydrothieno[2,3-c]pyridine-3-carboxylate] | greater at 200 ng/well than at 50 ng/well | successful and comparable transfection of local tissues | successful transfection | local transfection | greater significant light flux | 3 fold | ~5 fold | favorable transfection profile and cytotoxicity | 3 fold |  |  | 
CCCCC/C=C\C/C=C\CCCCCCCC(=O)Nc1sc2c(c1C(=O)N(CCCCCCCCCCCCCCCCCC)C(=O)CCCCCCC/C=C\C/C=C\CCCCC)CCN(C(=O)CCCN(C)C)C2 [26b, 6-(4-(dimethylamino)butanoyl)-2-((9Z,12Z)-octadeca-9,12-dienamido)-N-((9Z,12Z)-octadeca-9,12-dienoyl)-N-octadecyl-4,5,6,7-tetrahydrothieno[2,3-c]pyridine-3-carboxamide] | greater at 200 ng/well than at 50 ng/well |  | successful transfection | local transfection | greater significant light flux |  |  | favorable transfection profile and cytotoxicity |  | not detected |  | 
CCCCC/C=C\C/C=C\CCCCCCCC(=O)Nc1sc2c(c1C(=O)NCCCN(C)C)CCN(C(=O)CCCCCCC/C=C\C/C=C\CCCCC)C2 [29d, N-(3-(dimethylamino)propyl)-2-((9Z,12Z)-octadeca-9,12-dienamido)-6-((9Z,12Z)-octadeca-9,12-dienoyl)-4,5,6,7-tetrahydrothieno[2,3-c]pyridine-3-carboxamide] | inverse dose response |  | successful transfection | spleen and lungs |  |  |  | favorable transfection profile and cytotoxicity |  |  |  | 
CCCCC/C=C\C/C=C\CCCCCCCCOC(=O)c1c(NC(=O)CCCCCCCCCCCCCCCCC)sc2c1CCNC2 [34a, (9Z,12Z)-octadeca-9,12-dien-1-yl 2-stearamido-4,5,6,7-tetrahydrothieno[2,3-c]pyridine-3-carboxylate] |  |  | successful transfection | liver and spleen |  |  |  | favorable transfection profile and cytotoxicity |  |  | highest light flux | 
CCCCC/C=C\C/C=C\CCCCCCCCOC(=O)c1c(NC(=O)CCCCCCC/C=C\C/C=C\CCCCC)sc2c1CCNC2 [34b, (9Z,12Z)-octadeca-9,12-dien-1-yl 2-((9Z,12Z)-octadeca-9,12-dienamido)-4,5,6,7-tetrahydrothieno[2,3-c]pyridine-3-carboxylate] |  |  | successful transfection |  |  |  |  | favorable transfection profile and cytotoxicity |  |  | highest light flux | 
CCCCC/C=C\C/C=C\CCCCCCCCOC(=O)c1c(NC(=O)CCCCCCC/C=C\C/C=C\CCCCC)sc2c1CCN(C(=O)CCCN(C)C)C2 [35a, (9Z,12Z)-octadeca-9,12-dien-1-yl 6-(4-(dimethylamino)butanoyl)-2-((9Z,12Z)-octadeca-9,12-dienamido)-4,5,6,7-tetrahydrothieno[2,3-c]pyridine-3-carboxylate] |  |  | successful transfection |  |  |  |  | favorable transfection profile and cytotoxicity |  |  |  | up to 4 ×fold
